Measurements published in US20120088667A1, “SAFENING AGENT” (priority 2009, published 2012).

Experiments:
oilseed rape = experiment: Safening oilseed rape using a variety of safening compounds of classes (a) to (f) with herbicides; assay type: in vivo; settings: herbicide Bifenox (with insecticide cypermethrin)
From the text: Safening compounds were selected from the list of compounds below. The compounds used are highlighted in bold. • (a) Glucose (GL), hydrolysed starch, sucrose (S), fructose (FR), glycerol (G), glyceraldehydes, erythrose, ribulose, xylulose or arabinose or an ester or glycoside or metabolic equivalent of such a carbohydrate; • (b) an organic acid of the Krebs Tricarboxylic Acid Cycle or a metabolic precursor thereof (including citric (C), succinic (SU), malic, pyruvic, acetic and fumaric acids); • (c) a vitamin or coenzyme, eg thiamine (T), riboflavin (R), pyridoxine (P), pyridoxamine, pyridoxal, nicotinamide (N), folic acid (F), ascorbic acid (AA), Biotin (B) and vitamin B12 (B12) or a precursor thereof including nicotinic acid • (d) a purine or pyrimidine nucleoside, nucleotide or a metabolic precursor thereof, eg adenine, adenosine, thymine, thymidine, cytosine, guanine, guanosine, hypoxanthine, uracil, uridine or inosine, to act as structural precursors for nucleic acid synthesis. • (e) a naturally occurring fat or oil including olive, soya, coconut and corn (Oil) oils; • (f) an amino acid of a type that occurs naturally in plant proteins, eg glycine (GLY), alanine (AL), valine, leucine (LE), isoleucine, serine, threonine (THR), cysteine (CY), methionine (ME), aspartic acid, glutamic acid, glutamine (GLU), asparagine (AS), lysine (LY), hydroxylysine, arginine, histidine, phenylalanine, tyrosine, tryptophan, proline, or hydroxyproline. Statistical Layout: Randomised Complete Block trial, under glasshouse conditions, United Kingdom.

Soybean = experiment: Root nodulation and safening, soybean, compost of low pH (Example 7.1)
From the text: (§1) The safener/safening system and the fertiliser were applied to the crops either simultaneously or sequentially.
(§2) Co=100% Cobalt Sulphate (20 g per litre and per hectare). FF1=20 g per litre Cobalt Sulphate (as per Co above) plus “Miracle-Gro” at xl recommended rate (applied at 15 g per 2.5 sq metres). Miracle-Gro contains: 24% N, 4% P, 13% K, plus 0.02% B, 0.03% Cu, 0.19% Fe, 0.05% Mn, 0.001% Mo and 0.03% Zn. FF2=20 g per litre Cobalt Sulphate plus Miracle-Gro at ×2 recommended rate. SAF: at least one from class (f) each at <3 g/l, plus at least one from class (c).
Scored/Counted+28 Days After Spraying. Sown in Compost of low pH (5.0-5.5) on 1 May 2008. Spray Date (VC)=4 June, V1 Date=20 June. Scored/Measured on 17 July. […] Seed density approx 110 kg/ha. Soybean treated with standard inoculant at sowing.

Glycine max (Soybean) = experiment: Root nodulation and safening, soybean, compost of normal pH (Example 7.2); settings: compost of normal pH (6.5)
From the text: as §1, §2
Dates as per Example 7.1 above, but sown in compost of normal pH (6.5). Each treatment represents the mean values for 12 plants, within four replicates. Sowing density 110 kg/ha. Standard inoculant applied at sowing.

NAVY BEAN cv Mogex [1] = experiment: Root nodulation and safening, navy bean, compost of low pH (Example 7.3); settings: compost of low pH (5.0-5.5)
From the text: as §1, §2
NAVY BEAN cv Mogex. Scored/Counted+28 Days after Spraying. Sown in Compost of low pH (5.0-5.5) on 29 Apr. 2008. Spray Date (VC)=27 May, V1 Date=16 June. Scored/Measured on 11 July. Each treatment represents the mean value of 12 plants, within four replicates. No inoculum applied.

NAVY BEAN cv Mogex [2] = experiment: Root nodulation and safening, navy bean, compost of normal pH (Example 7.4); settings: compost of normal pH (6.5)
From the text: as §1, §2
NAVY BEAN cv Mogex. Scored/Counted+28 Days after Spraying. Dates as per Example 7.3 Above, but sown in compost of normal pH (6.5). Each treatment represents the mean value from 12 plants, within four replicates. No inoculum applied.

PEA cv Ragtime [3] = experiment: Root nodulation, rooting and safening, pea, compost of low pH (Examples 7.5 and 7.7)
From the text: as §1, §2
PEA—TRIAL 5—cv Ragtime. Scored/Counted+28 Days after Spraying. Sown in Compost of Low pH (5.0-5.5) on 28 Apr. 2008. Spray Date (VC)=26 May, V1 Date=14 June. Scored/Measured on 9 July. […] No inoculum applied.
Sowing details etc as per Example 7.5.

PEA cv Ragtime [4] = experiment: Root nodulation and safening, pea, compost of normal pH (Example 7.6); settings: compost of normal pH (6.5)
From the text: as §1, §2
PEA—TRIAL 7.6—cv Ragtime. Dates as per Example 7.5 above, but sown in compost of normal pH (6.5). […] No inoculum was applied.

Winter wheat cv Alchemy = experiment: Safening of herbicides from addition of auxin/auxin precursor and acetaminophen, winter wheat; settings: auxins/precursors 10^-2 Molar, AC 3 g per hectare, 0-9 scale, 0=dead plant
[5] = Soybean, compost of low pH (5.0-5.5), V1, score 0-9
[6] = V1, +28 days after spraying, no inoculum
[7] = compost of low pH (5.0-5.5), V1, score 0-9
[8] = low pH compost, application at V1, 0-9 scale

Structure (SMILES): Nc1ccccc1C(=O)O [2. AN (Anthranilic Acid)]
- Phytotoxicity (0-9) (0 = Dead) + 14 Days (oilseed rape; score 0-9, 0 = Dead, 14 days): 8.0
- Vigour (0-9) (0 = Dead) + 14 days (oilseed rape; score 0-9, 0 = Dead, 14 days): 8.0
- Phytotoxicity (0-9) (0 = Dead) + 28 Days (oilseed rape; score 0-9, 0 = Dead, 28 days): 8.0
- Vigour (0-9) (0 = Dead) + 28 Days (oilseed rape; score 0-9, 0 = Dead, 28 days): 8.0
- Rooting (0-9) (9 = Best Rooting) + 28 Days (oilseed rape; score 0-9, 9 = Best Rooting, 28 days): 8.0

Structure (SMILES): O=S(=O)([O-])[O-].[Co+2] [cobalt, Cobalt Sulphate]
- Nodules Per Plant (V1) (Soybean; Soybean, compost of low pH (5.0-5.5), V1, +28 days after spraying, mean of 12 plants): 27.3
- Nodulation Score (0-9) (V1) (Soybean; [5]): 5.2
- Phyto-Toxicity Score (0-9) (V1) (Soybean; [5]): 7.8
- Vigour Score (0-9) (V1) (Soybean; [5]): 6.0
- Nodules Per Plant (VC) (Soybean; Soybean, compost of low pH (5.0-5.5), VC, +28 days after spraying): 28.8
- Nod Score (0-9) (VC) (Soybean; Soybean, compost of low pH (5.0-5.5), VC, score 0-9): 5.4
- nodulation (Soybean; nitrogen fixing crops): increases nodulation
- Nodules Per Plant (V1) (Glycine max (Soybean); V1, mean of 12 plants): 29.8
- Nodulation Score (0-9) (V1) (Glycine max (Soybean); V1, score 0-9): 5.5
- Phyto-Toxicity Score (0-9) (V1) (Glycine max (Soybean); V1, score 0-9): 8.0
- Vigour Score (0-9) (V1) (Glycine max (Soybean); V1, score 0-9): 6.5
- Nodules Per Plant (VC) (Glycine max (Soybean); VC): 28.0
- Nod Score (0-9) (VC) (Glycine max (Soybean); VC, score 0-9): 5.3
- Nodules Per Plant (V1) (NAVY BEAN cv Mogex [1]; [6]): 21.0
- Nodulation Score (0-9) (V1) (NAVY BEAN cv Mogex [1]; V1, score 0-9): 3.3
- Phyto-Toxicity Score (0-9) (V1) (NAVY BEAN cv Mogex [1]; V1, score 0-9): 5.7
- Vigour Score (0-9) (V1) (NAVY BEAN cv Mogex [1]; V1, score 0-9): 5.9
- Nodules Per Plant (VC) (NAVY BEAN cv Mogex [1]; VC): 23.8
- Nod Score (0-9) (VC) (NAVY BEAN cv Mogex [1]; VC, score 0-9): 3.8
- Nodules Per Plant (V1) (NAVY BEAN cv Mogex [2]; [6]): 33.5
- Nodulation Score (0-9) (V1) (NAVY BEAN cv Mogex [2]; V1, score 0-9): 5.2
- Phyto-Toxicity Score (0-9) (V1) (NAVY BEAN cv Mogex [2]; V1, score 0-9): 7.3
- Vigour Score (0-9) (V1) (NAVY BEAN cv Mogex [2]; V1, score 0-9): 7.2
- Nodules Per Plant (VC) (NAVY BEAN cv Mogex [2]; VC): 31.8
- Nod Score (0-9) (VC) (NAVY BEAN cv Mogex [2]; VC, score 0-9): 5.0
- Nodules Per Plant (V1) (PEA cv Ragtime [3]; compost of low pH (5.0-5.5), V1, +28 days after spraying, no inoculum): 16.4
- Nodulation Score (0-9) (V1) (PEA cv Ragtime [3]; [7]): 5.0
- Phyto-Toxicity Score (0-9) (V1) (PEA cv Ragtime [3]; [7]): 5.1
- Vigour Score (0-9) (V1) (PEA cv Ragtime [3]; [7]): 5.8
- Nodules Per Plant (VC) (PEA cv Ragtime [3]; compost of low pH (5.0-5.5), VC): 18.1
- Nod Score (0-9) (VC) (PEA cv Ragtime [3]; compost of low pH (5.0-5.5), VC, score 0-9): 5.3
- Nodules Per Plant (V1) (PEA cv Ragtime [3]; low pH compost, application at V1 (data from Example 7.5)): 16.4
- Nodulation Score (0-9) (V1) (PEA cv Ragtime [3]; [8]): 5.0
- Phyto-Toxicity Score (0-9) (V1) (PEA cv Ragtime [3]; [8]): 5.1
- Rooting Score (0-9) (V1) (PEA cv Ragtime [3]; [8]): 4.2
- Nodules Per Plant (V1) (PEA cv Ragtime [4]; V1, no inoculum): 16.9
- Nodulation Score (0-9) (V1) (PEA cv Ragtime [4]; V1, score 0-9): 5.1
- Phyto-Toxicity Score (0-9) (V1) (PEA cv Ragtime [4]; V1, score 0-9): 6.9
- Vigour Score (0-9) (V1) (PEA cv Ragtime [4]; V1, score 0-9): 6.8
- Nodules Per Plant (VC) (PEA cv Ragtime [4]; VC): 17.4
- Nod Score (0-9) (VC) (PEA cv Ragtime [4]; VC, score 0-9): 5.2

Structure (SMILES): Nc1ccccc1C(=O)O [Anthranilic acid (AN)]
- Phytotoxicity (0-9) (0 = Dead) + 14 Days (Winter wheat cv Alchemy; 14 days after spraying): 8.0
- Phytotoxicity (0-9) (0 = Dead) + 28 Days (Winter wheat cv Alchemy; 28 days after spraying): 8.0
